The target in the test is Recombinant human HSD17B13 (Homo sapiens (Human), UniProt Q7Z5P4). Nature of the test: HSD17B13 rapid-fire mass spectrometry assay (RF/MS assay). The class given is biochemical. The settings on record: inhibition of HSD17B13; LTB4 10 μM, NAD+ 0.5 mM, RT 3 h; IC50 ranges A-E. An excerpt: HSD17B13 rapid-fire mass spectrometry assay (RF/MS assay). Recombinant human HSD17B13 was expressed and purified from sf9 cells at Charles River Labs (Saffron Walden, UK). Leukotriene B4 (Catalog #71160-24-2) and 12-oxoleukotriene B4 (Catalog #20140) were purchased from Cayman Chemicals (Ann Arbor, Michigan.). NAD+ (Catalog #N8285), BSA (Catalog #A7030), DMSO (Catalog #D2650), and Tween-20 (Catalog #11332465001) were purchased from Sigma (St. Louis, MO). Formic acid (Catalog #28905) was from ThermoFisher Scientific and 384 deep well PP microplates (Catalog #784261) were from Greiner Bio-One. In a typical IC50 assay performed in a 384w PP microplate, test compounds (0-100 μM) were incubated with HSD17B13 (80 nM), LTB4 (10 μM), and NAD^+ (0.5 mM) in 10 μL assay buffer (20 mM Tris (pH 7.5), BSA (0.005%), and Tween-20 (0.01%)) at RT for 3 h. The assays were quenched by adding 20 μL of 0.15% aqueous formic acid and the plates were frozen at −80° C. RF/MS analysis was performed at PureHoney Technologies (Billerica, MA) on a RapidFire RF300 system (Agilent Technologies, Inc.) coupled to an API 4000 triple quadrupole mass spectrometer (Sciex) equipped with Agilent RapidFire cartridge type A (C4). The mobile phase was 0.09% formic acid and 0.01% trifluoracetic acid in water (Buffer A) and 0.09% formic acid and 0.01% trifluoracetic acid in 80% aqueous acetonitrile (Buffer B). The RapidFire method conditions were the following: 250 ms aspirate, 3000 ms load/desalt, 4000 ms elute, and 500 ms re-equilibrate. RF-MS/MS was performed in negative polarity (−4500 V), the source temperature was 650° C., and gas 1 and gas 2 settings for nitrogen were set to 50. The curtain gas and collision gas were also nitrogen and were set to 20 and 12, respectively. Leukotriene B4 (335.3) and 12-oxoLeukotriene B4 (333.3) SRM transitions were optimized with Discovery Quant software and extracted ion counts for these analytes were determined.
Chain of Recombinant human HSD17B13 (Q7Z5P4 20-300): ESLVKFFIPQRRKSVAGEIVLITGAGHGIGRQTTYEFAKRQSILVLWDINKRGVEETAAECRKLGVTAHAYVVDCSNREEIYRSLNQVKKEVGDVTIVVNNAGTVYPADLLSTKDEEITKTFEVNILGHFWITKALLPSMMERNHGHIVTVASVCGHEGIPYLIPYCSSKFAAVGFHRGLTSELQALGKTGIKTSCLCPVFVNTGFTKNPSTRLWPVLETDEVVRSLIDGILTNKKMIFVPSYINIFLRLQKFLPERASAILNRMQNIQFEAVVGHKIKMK
Data Analysis. HSD17B13 enzyme activity was measured as percent conversion of extracted ion counts and normalized to high and low controls to determine percent residual activity at various concentrations of test compounds. Data were fitted to normalized activity (variable slope) versus concentration fit in GraphPad Prism 7 to determine IC50. All experiments were run in duplicates.
By using above method, the inhibition of HSD17B13 was evaluated for the compounds of Formula (I). IC50 ranges are as follows: A=IC50<0.100 μM; B=0.100 μM<IC50<0.500 μM; C=0.500 μM<IC50<1 μM; D=1 μM<IC50<100 μM; E=IC50>100 μM

59 compounds from patent US12384753B2, “17-beta-hydroxysteroid dehydrogenase type 13 inhibitors and methods of use thereof” (Enanta Pharmaceuticals, Inc., priority 2021, dated 2025) can be followed below.

Regarding `Cc1sc(-c2ccc(F)cc2)nc1S(=O)(=O)Nc1ccc(C(=O)O)cc1` [Example 55, 4-((2-(4-fluorophenyl)-5-methylthiazole)-4-sulfonamido)benzoic acid], the IC50 was in the range of 1 to 100 µM. The result for `COc1ccc(-c2nc(S(=O)(=O)Nc3ccc(C(=O)O)cc3)cs2)cc1` [Example 56, 4-((2-(4-methoxyphenyl)thiazole)-4-sulfonamido)benzoic acid] reads 0.5 to 1 µM. For the compound `O=C(O)c1ccc(NS(=O)(=O)c2csc(N3CCOCC3)n2)cc1` [Example 57, 4-((2-morpholinothiazole)-4-sulfonamido)benzoic acid], the half-inhibitory concentration (IC50) lay in the range of 1 to 100 µM. The result for `O=C(O)c1ccc(NS(=O)(=O)c2csc(N3CCC(F)(F)CC3)n2)cc1` [Example 58] reads 1 to 100 µM; that for `COc1c(NS(=O)(=O)c2cnc(-c3ccc(F)cc3)s2)ccc(C(=O)O)c1F` [Example 59], 0.1 to 0.5 µM; that for `O=C(O)c1ccc(NS(=O)(=O)c2cnc(-c3ccc(F)cc3)s2)cc1` [Example 60, 4-((2-(4-fluorophenyl)thiazole)-5-sulfonamido)benzoic acid], 0.5 to 1 µM. The result for `O=C(O)c1cc(O)c(NS(=O)(=O)c2cnc(-c3ccc(F)cc3)s2)cc1F` [Example 61] reads < 0.1 µM; that for `O=C(O)c1ccc(NS(=O)(=O)c2cnc(-c3ccc(F)cc3)s2)c(O)c1F` [Example 62], < 0.1 µM; that for `O=C(O)c1ccc(NS(=O)(=O)c2csc(-c3ccc(O)cc3)n2)cc1` [Example 63], 0.5 to 1 µM. Consider `O=C(O)C1CCN(S(=O)(=O)c2cnc(-c3ccc(F)cc3)s2)CC1` [Example 64], for which the IC50 is 1 to 100 µM.

`O=C(O)C1CCCN(S(=O)(=O)c2cnc(-c3ccc(F)cc3)s2)C1` (centres unmarked) [Example 65]: the IC50 is > 100 µM. Next, `O=C(O)C1CCC(NS(=O)(=O)c2cnc(-c3ccc(F)cc3)s2)CC1` (centres unmarked) [Example 66]: > 100 µM. As for `O=C(O)[C@H]1CC[C@H](NS(=O)(=O)c2cnc(-c3ccc(F)cc3)s2)CC1` [Example 67], the half-inhibitory concentration (IC50) fell in the range of 1 to 100 µM. With `O=C(O)C12CC(NS(=O)(=O)c3cnc(-c4ccc(F)cc4)s3)(C1)C2` [Example 68], the IC50 was > 100 µM.

Regarding `COc1cc(C(=O)NO)ccc1NS(=O)(=O)c1cnc(-c2ccc(F)cc2)s1` [Example 69, 4-((2-(4-fluorophenyl)thiazole)-5-sulfonamido)-N-hydroxy-3-methoxybenzamide], the IC50 is 1 to 100 µM. The result for `CONC(=O)c1ccc(NS(=O)(=O)c2cnc(-c3ccc(F)cc3)s2)c(OC)c1` [Example 70] reads 1 to 100 µM.

For `COc1cc(C(=O)N(C)O)ccc1NS(=O)(=O)c1cnc(-c2ccc(F)cc2)s1` [Example 71], the half-maximal inhibitory concentration (IC50) lay within 1 to 100 µM. Take `COc1nc(C(=O)O)ccc1NS(=O)(=O)c1cnc(-c2ccc(F)cc2)s1` [Example 74]: the IC50 is 1 to 100 µM. Take `O=C(O)c1cc(NS(=O)(=O)c2cnc(-c3ccc(F)cc3)s2)cs1` [Example 75]: the IC50 fell in the range of 1 to 100 µM. The result for `N#Cc1cc(C(=O)O)ccc1NS(=O)(=O)c1cnc(-c2ccc(F)cc2)s1` [Example 76] reads 0.5 to 1 µM; that for `O=C(O)c1ccc(NS(=O)(=O)c2cnc(-c3ccc(F)cc3)s2)s1` [Example 77], 1 to 100 µM. Consider `COc1cc(C(=O)O)c(Cl)cc1NS(=O)(=O)c1cnc(-c2ccc(F)cc2)s1` [Example 78], for which the IC50 lay within 0.5 to 1 µM. The result for `COc1cc(C(=O)O)ccc1NS(=O)(=O)c1cnn(-c2ccc(F)cc2)c1` [Example 79] reads 1 to 100 µM. The result for `COc1cc(C(=O)O)ccc1NS(=O)(=O)c1cnn(-c2ccc(F)cc2)c1C` [Example 80] reads 1 to 100 µM; that for `COc1cc(C(=O)O)ccc1NS(=O)(=O)c1cnc(-c2ccccc2)o1` [Example 81], 0.1 to 0.5 µM; that for `O=C(O)c1ccc(NS(=O)(=O)c2cnc(-c3ccc(F)cc3)s2)c2ncccc12` [Example 82], 1 to 100 µM.

Turning to `O=C(O)c1cnc(NS(=O)(=O)c2cnc(-c3ccc(F)cc3)s2)nc1` [Example 83], the half-inhibitory concentration (IC50) was 1 to 100 µM. On to `COc1nc(C(=O)O)cnc1NS(=O)(=O)c1cnc(-c2ccc(F)cc2)s1` [Example 84], for which the concentration for half-maximal inhibition (IC50) is 1 to 100 µM. The result for `COc1cc(C(=O)O)cnc1NS(=O)(=O)c1cnc(-c2ccc(F)cc2)s1` [Example 85] reads 0.1 to 0.5 µM; that for `O=C(O)c1cc(NS(=O)(=O)c2cnc(-c3ccc(F)cc3)s2)co1` [Example 86], 0.1 to 0.5 µM.

Regarding `O=C(O)c1ccc(NS(=O)(=O)c2cnc(-c3ccc(F)cc3)s2)c2ccccc12` [Example 87], the IC50 was 1 to 100 µM. Next, `COc1cc(C(=O)O)ccc1NS(=O)(=O)c1csc(-c2ccc(F)c3ccccc23)n1` [Example 88]: 1 to 100 µM.

As to `COc1cc(C(=O)O)ccc1NS(=O)(=O)c1csc(-c2ccc(F)c3ccoc23)n1` [Example 89], the concentration for half-maximal inhibition (IC50) lay within 1 to 100 µM.

On to `O=C(O)c1cnc(NS(=O)(=O)c2cnc(-c3ccc(F)cc3)s2)cn1` [Example 90], for which the IC50 lay within 1 to 100 µM. Turning to `Cn1nc(C(=O)O)cc1NS(=O)(=O)c1cnc(-c2ccc(F)cc2)s1` [Example 91], the IC50 was > 100 µM.

Turning to `O=C(O)c1cc(NS(=O)(=O)c2cnc(-c3ccc(F)cc3)s2)n(-c2ccccc2)n1` [Example 92], the 50% inhibitory concentration (IC50) lay within 1 to 100 µM. The result for `O=C(O)c1ccc2nc(NS(=O)(=O)c3cnc(-c4ccc(F)cc4)s3)oc2c1` [Example 93] reads 1 to 100 µM. Next, `O=C(O)c1ccc2nc(NS(=O)(=O)c3cnc(-c4ccc(F)cc4)s3)sc2c1` [Example 94]: 1 to 100 µM; `COc1cc(C(=O)O)ccc1NS(=O)(=O)c1csc(-c2cccc(F)c2)n1` [Example 95]: 0.1 to 0.5 µM; `COc1cc(C(=O)O)ccc1NS(=O)(=O)c1csc(-c2ccccc2F)n1` [Example 96]: 0.1 to 0.5 µM.

Turning to `COc1cc(C(=O)O)ccc1NS(=O)(=O)c1csc(-c2ccc(C)cc2)n1` [Example 97], the concentration for half-maximal inhibition (IC50) was in the range of 0.1 to 0.5 µM.

As for `COc1cc(C(=O)O)ccc1NS(=O)(=O)c1csc(-c2ccc(C(F)(F)F)cc2)n1` [Example 98], the IC50 is 0.1 to 0.5 µM.

With `COc1ccc(-c2nc(S(=O)(=O)Nc3ccc(C(=O)O)cc3OC)cs2)cc1` [Example 99], the IC50 is 0.1 to 0.5 µM. The result for `COc1cc(C(=O)O)ccc1NS(=O)(=O)c1csc(-c2ccncc2)n1` [Example 100] reads 1 to 100 µM; that for `COc1cc(C(=O)O)ccc1NS(=O)(=O)c1csc(-c2ccn(C)n2)n1` [Example 101], 1 to 100 µM. Next, `COc1cc(C(=O)O)ccc1NS(=O)(=O)c1csc(-c2ccccc2)n1` [Example 102]: < 0.1 µM; `COc1cc(C(=O)O)ccc1S(=O)(=O)Nc1csc(-c2ccccc2)n1` [Example 103]: 0.5 to 1 µM; `O=C(O)c1cnc(NS(=O)(=O)c2cnc(-c3ccc(F)cc3)s2)o1` [Example 104]: 1 to 100 µM. Next, `COc1cc(C(=O)O)ccc1N(C)S(=O)(=O)c1cnc(-c2ccc(F)cc2)s1` [Example 105]: 1 to 100 µM; `O=C(O)c1ncc(NS(=O)(=O)c2cnc(-c3ccc(F)cc3)s2)cn1` [Example 106]: 1 to 100 µM. As to `O=C(O)c1ccc(NS(=O)(=O)c2cnc(-c3ccc(F)cc3)s2)cc1O` [Example 107], the IC50 is 0.5 to 1 µM. The result for `O=S(=O)(Nc1ccc(O)cc1)c1cnc(-c2ccc(F)cc2)s1` [Example 108] reads 1 to 100 µM. The result for `O=S(=O)(Nc1ccc(O)cc1O)c1cnc(-c2ccc(F)cc2)s1` [Example 109] reads 1 to 100 µM; that for `COc1cc(O)ccc1NS(=O)(=O)c1cnc(-c2ccc(F)cc2)s1` [Example 110], 1 to 100 µM.

In the case of `O=S(=O)(Nc1ccc(Br)cc1C(F)F)c1cnc(-c2ccc(F)cc2)s1` [Example 111], the concentration for half-maximal inhibition (IC50) is 1 to 100 µM.

On to `O=C(O)c1ccc(NS(=O)(=O)c2csc(-c3ccc(O)cc3)n2)c(O)c1` [Example 112], for which the IC50 lay within 0.1 to 0.5 µM. Next, `COc1ccc(NS(=O)(=O)c2cnc(-c3ccc(F)cc3)s2)cc1Cl` [Example 113]: 1 to 100 µM; `O=S(=O)(Nc1ccc(O)c(Cl)c1)c1cnc(-c2ccc(F)cc2)s1` [Example 114]: 1 to 100 µM; `CS(=O)(=O)c1cc(C(=O)O)ccc1NS(=O)(=O)c1cnc(-c2ccc(F)cc2)s1` [Example 115]: 1 to 100 µM.

As usually defined, the IC50 is the concentration at which inhibition is half-maximal.
